According to patent US11014884B2 (Global Blood Therapeutics, Inc., priority 2018, dated 2021):

Legend:
hemoglobin = target: T1, hemoglobin (Homo sapiens, UniProt P69905); experiment: Whole blood assay: oxygen equilibrium curves (Hemox Analyzer), change in p50; assay type: cell-based; conditions: whole blood 20% Hct (1 mM Hb), compound 1 mM, equimolar to hemoglobin, 1 h at 37° C.
T1 construct: from tissue; host or cells: whole blood (red blood cells)
Description: Oxygen equilibrium curves (OECs) were collected using a TCS Hemox Analyzer (TCS Scientific Company, New Hope, Pa., USA) to measure changes in the binding affinity of 02 to Hb. Whole blood was incubated for 1 h at 37° C. with the indicated compounds in an equimolar ratio of hemoglobin to compound and diluted into TES (2-[[1,3-dihydroxy-2-(hydroxymethyl)propan-2-yl]amino]ethanesulfonic acid)/saline buffer prior to measurements. For example, for whole blood at 20% hematocrit [Hct], which corresponds to 1 mM Hb, a compound concentration of 1 mM was used (for example, for compounds 1-53), and the incubated sample diluted 50- to 100-fold. The concentration for compound 54 was 1.7 mM and in equimolar ratio to hemoglobin. The diluted samples were then oxygenated with compressed air within the Hemox Analyzer, and the OECs were collected during deoxygenation as previously described (Guarnone et al., Haematologica, 1995, 80, 426-430). p50 (partial pressure of 02 at which Hb is 50% saturated with 02) values were obtained using a non-linear regression analysis. Percentage change in p50 [Δp50(%)] was calculated as follows: Δp50(%)=[(p50 of control)−p50 with compound)/p50 control]×100.

Purified hemoglobin = Purified hemoglobin (Homo sapiens, UniProt P69905); experiment: Hemoglobin assay: oxygen equilibrium curves with purified hemoglobin, change in p50; assay type: biochemical; conditions: purified hemoglobin 25 μM, compound 30 μM, 1 h at 37° C.
Sequence of Purified hemoglobin (P69905 2-142 limits assumed): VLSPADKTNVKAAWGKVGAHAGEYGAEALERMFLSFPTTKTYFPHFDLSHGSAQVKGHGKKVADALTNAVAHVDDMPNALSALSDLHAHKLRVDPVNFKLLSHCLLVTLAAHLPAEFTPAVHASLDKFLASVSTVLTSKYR
Sequence of Purified hemoglobin (P68871 2-147 partner limits assumed): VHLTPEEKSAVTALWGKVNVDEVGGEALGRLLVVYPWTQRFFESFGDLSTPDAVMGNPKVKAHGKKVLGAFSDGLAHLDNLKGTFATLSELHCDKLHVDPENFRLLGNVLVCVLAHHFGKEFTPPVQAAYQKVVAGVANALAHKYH
Description: Hemoglobin assay: Oxygen equilibrium curves (OECs) were collected as described above. Purified hemoglobin (25 μM) was incubated for 1 h at 37° C. with the indicated compounds (30 μM for compounds 6, 7, 8, and 11; 25 μM for compounds 55 to 67 (Enantiomer 1 and Enantiomer 2)) in 5 ml of TES (2-[[1,3-dihydroxy-2-(hydroxymethyl)propan-2-yl]amino]ethanesulfonic acid)/saline buffer prior to measurements. The samples were then oxygenated with compressed air within the Hemox Analyzer and the OECs were collected during deoxygenation as previously described. p50 values were obtained using a non-linear regression analysis, and Δp50(%) was calculated as described above.

Human CO-HbS = target: T2, Human CO-HbS (Homo sapiens, UniProt P69905); experiment: Crystallography of CO-liganded HbS with compound; conditions: CO-HbS 0.8 mM, compound 1 mM
T2 construct: Purified HbS was prepared from blood using a combination of gel filtration and anion exchange chromatography; from tissue; host or cells: blood
T2 sequence (P69905 2-142 limits assumed): as the sequence (P69905 2-142 limits assumed) above
Description: Purified HbS was prepared from blood using a combination of gel filtration and anion exchange chromatography. Following preparation, the purified HbS solution was concentrated to 1 mM in a volume of 1 mL using a Vivaspin 20 concentrator (GE healthcare) via centrifugation at room temperature in an Eppendorf 5810 R centrifuge. The concentrated HbS solution was then buffer exchanged into potassium phosphate buffer by mixing 1 mL of concentrated HbS solution with 20 mL of 1.8 M potassium phosphate buffer, pH 7.4 and re-concentrating back to 1 mL using a Vivaspin 20. This process was repeated twice and aliquots of the resulting HbS solution were flash frozen using liquid nitrogen and stored at −80° C. To prepare HbS-CO, purified HbS was first saturated with CO for five hours before it was buffer exchanged into 20 mM Hepes buffer, pH 7.4, and concentrated to 3 mM.
Human CO-HbS was crystallized using sitting drop vapor diffusion method. Freshly prepared CO-HbS at 0.8 mM and buffered with 20 mM HEPES pH 7.4 was mixed with compounds (specifically, Compound 1 and Compound 2) at a final concentration of 1 mM. […] The appearance of hemoglobin crystals was monitored visually and microscopically every 48-72 hours after beginning of the experiments. […]

[1] = Pharmacokinetics in rats following 10 mg/kg oral administration; assay type: in vivo; conditions: Sprague-Dawley, rat, PO 10 mg/kg
Description: The pharmacokinetic (PK) profile of Compound 2 was characterized in Sprague-Dawley rats following oral administration of 10 mg/kg. Blood and plasma samples were serially collected from each animal up to 240 h post-dose and analyzed for their concentrations using LC/MS. The analytical range was 100 to 100,000 ng/ml for both plasma and blood samples. Blood and plasma concentrations of Compound 2 were analyzed by non-compartmental analysis using Phoenix WinNonlin software (version 6-4; Pharsight Inc., Cary, N.C., USA) to obtain pharmacokinetic parameters, including half-life (T½) and area under the curve (AUC). AUClast refers to the area under the curve calculated from t=0 to the last detectable time-point. Blood to plasma concentration ratio was calculated from a ratio of AUClast in blood divided by AUClast in plasma.
Blood pharmacokinetic parameters in rat were determined in individual animals and reported as mean.

T1 sequence (P69905 2-142 limits assumed): as above
T1 sequence (P68871 2-147 partner limits assumed): as the sequence (P68871 2-147 partner limits assumed) above

SMILES | Delta-p50 (%) (hemoglobin) | Delta-p50 (%) (Purified hemoglobin) | binding sites on hemoglobin (crystal structure) (Human CO-HbS) | blood plasma ratio ([1]; blood and plasma, AUClast in blood divided by AUClast in plasma) | AUC(0-t) ([1]; whole blood, blood, 0.5% MC, mean of N=3) | half-life ([1]; whole blood, blood, 0.5% MC, mean of N=3, read-out: T½ (converted))
COc1ccc(C=O)cc1-c1ncccc1COc1cccc(O)c1C=O [Compound 6, 3-{3-[(2-formyl-3-hydroxyphenoxy)methyl]pyridin-2-yl}-4-methoxybenzaldehyde] | 16.7% | 60.66% |  |  |  | 
COc1ncc(C=O)cc1-c1ncccc1COc1cccc(O)c1C=O [Compound 7, 3-[(2-formyl-3-hydroxyphenoxy)methyl]-2′-methoxy-[2,3′-bipyridine]-5′-carbaldehyde] | 32.5% | 58.29% |  |  |  | 
O=Cc1cccc(-c2ncccc2COc2cccc(O)c2C=O)c1 [Compound 8, 3-{3-[(2-formyl-3-hydroxyphenoxy)methyl]pyridin-2-yl}benzaldehyde] | 44.8% | 57.3% |  |  |  | 
O=Cc1ccccc1C(=O)N1CCCC[C@H]1COc1cccc(O)c1C=O [Compound 2, 2-{[(2S)-1-(2-formylbenzoyl)piperidin-2-yl]methoxy}-6-hydroxybenzaldehyde] | 78.3% |  | two distinct areas of hemoglobin | 937 | 239 µg·h/mL | 187 h
O=Cc1c(O)cccc1OC[C@@H]1CCCCN1C(=O)c1cccc(O)c1C=O [Compound 1, 2-[(2S)-2-[(2-formyl-3-hydroxyphenoxy)methyl]piperidine-1-carbonyl]-6-hydroxybenzaldehyde] | 75.8% |  | two distinct areas of hemoglobin |  |  | 
O=Cc1cc(-c2ncccc2COc2cccc(O)c2C=O)co1 [Compound 11, 4-{3-[(2-formyl-3-hydroxyphenoxy)methyl]pyridin-2-yl}furan-2-carbaldehyde] | 17.2% | 14.12% |  |  |  | 
